Assay results taken from article PMC8845285, “Serotoninergic receptor ligands improve Tamoxifen effectiveness on breast cancer cells” (BMC Cancer, 2022).

Experiments:
[1] = molecular target: T1, serotonin 5-HT2C receptor (Rattus norvegicus, UniProt P08909); assay: radioligand binding assay, 5-HT2C, [3H]mesulergine; settings: rat brain cortex; read-out: Ki ± SD, 5-HT2C [3H]Mesulergine
T1 construct: serotonin 5-HT2C receptor, [^3H]mesulergine, rat brain cortex; from tissue; host or cells: rat brain cortex
T1 sequence (P08909 33-460): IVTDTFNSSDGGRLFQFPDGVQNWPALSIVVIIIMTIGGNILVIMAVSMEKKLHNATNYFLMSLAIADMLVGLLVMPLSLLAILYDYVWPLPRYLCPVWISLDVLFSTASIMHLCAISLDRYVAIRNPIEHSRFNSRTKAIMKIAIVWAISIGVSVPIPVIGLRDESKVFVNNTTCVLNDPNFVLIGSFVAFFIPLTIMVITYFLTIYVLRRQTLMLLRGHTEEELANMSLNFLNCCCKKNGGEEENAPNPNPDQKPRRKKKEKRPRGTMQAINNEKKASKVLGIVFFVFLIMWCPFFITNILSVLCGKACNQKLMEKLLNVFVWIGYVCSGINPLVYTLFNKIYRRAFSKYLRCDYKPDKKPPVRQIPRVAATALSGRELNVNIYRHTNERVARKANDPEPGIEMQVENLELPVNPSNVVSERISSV
Protocol: All reactions were monitored by TLC, carried out on Merck 60G F254 plates with fluorescent indicator and the plates were visualized with UV light (254 nm). Each final compound and intermediate was purified by silica gel column chromatography (Macherey-Nagel 60 0,063–0,2 mm/70–230 mesh). […] Unless otherwise stated, all spectra were recorded in CDCl3. Chemical shifts are reported in ppm using Me4Si as internal standard. The following abbreviations are used to describe peak patterns when appropriate: s (singlet), d (doublet), t (triplet), m (multiplet), q (quartet), qt (quintet), dd (double doublet), ddd (double dd), bs (broad singlet). Mass spectra of the final products were performed on LTQ Orbitrap XL™ Fourier transform mass spectrometer (FTMS) equipped with ESI ION MAX™ source (Thermo Fisher, San José, USA). Melting points were determined using a Buchi B-540 hot-stage instrument and are uncorrected. […] All the compounds were dissolved in 5% DMSO. The following specific radioligands and tissue sources were used: (a)serotonin 5-HT1A receptor, [^3H]-8-OH-DPAT, rat brain cortex; (b) serotonin 5-HT2A receptor, [^3H]ketanserin, rat brain cortex; (c)serotonin 5-HT2C receptor, [^3H]mesulergine, rat brain cortex. Non-specific binding was determined as described in the experimental section, and specific binding as the difference between total and non-specific binding. […] The IC50 values obtained were used to calculate apparent inhibition constants (Ki) by the method of Cheng and Prussoff, from the following equation: Ki = IC50/(1 + S/KD) where S represents the concentration of the hot ligand used and KD its receptor dissociation constant (KD values, obtained by Scatchard analysis, were calculated for each labeled ligand). Radioligand binding assays for 5-HT1A were performed following a published procedure. 5-HT2A and 5-HT2C binding assays were performed reported by Herndon et al..

CTGF = CTGF mRNA levels in MCF7-R cells, qPCR; assay type: cell-based, human; settings: SER 20 μM
Protocol: Total RNA was isolated from cells, quantified (NanoDrop spectrophotometer, Life Technologies, Carlsbad, CA, USA) and reverse transcribed according to the manufacturer’s instructions. Semiquantitative PCR and qPCR assays were performed according to manufacturer’s instructions for Bio-Rad T100 thermal cycler and CFX Connect Real Time system (Biorad, Hercules, CA, USA), respectively. Relative gene expression quantification was measured by 2^−ΔΔCt method normalizing for the reference sample using Rps23 (Ribosomal Protein S23) as housekeeping gene.
Fig. 9 Effect of SER79 and SER68 on Tamoxifen-resistant (MCF7-R) cells. a Estrogen starved MCF7-R were treated with SER79 (20 μM, 5 μM) or SER68 (20 μM) in presence of E2 (100 nM). b Estrogen-starved MCF7-R were treated with Tamoxifen (5 μM) in presence of E2 and SER79 (20 μM) or SER68 (20 μM). a,b As positive control, the cells were treated with E2 alone, in absence or in presence of SER (dotted line). After 72 h, cell viability was assessed by sulforhodamine B assay (see Methods). The results were reported as percentage of viable cells compared to positive control, considered as maximum viability (100%). c mRNA levels of CTGF were determined by qPCR (see Methods and Table 1) in MCF7-R cells upon treatment with SER68 (20 μM). […]

Row | SMILES | Ki [1] [nM] | effect on CTGF mRNA content of MCF7-R cells (CTGF)
1 | O=C1C2C3C=CC(C3)C2C(=O)N1OCCN1CCN(c2ccc(Cl)c(Cl)c2)CC1 (stereo not drawn) [SER68] | 1.13 ± 0.16 | did not further reduce
2 | N#CN=C(NCCCN1CCN(C(c2ccc(F)cc2)c2ccc(F)cc2)CC1)c1ccccn1 [SER79] | 21.4 ± 1.22 | –
